Measured values taken from patent US8466168B2, “Tricyclic alkylaminomethyloxazolidinone derivatives” (Actellon Pharmaceuticals Ltd., priority 2008, dated 2013).

system: S. aureus A798; test: MIC determination by microdilution in cation-adjusted Mueller-Hinton Broth (CLSI M7-A7); type: cell-based; conditions: Staphylococcus aureus, microdilution method, strain S. aureus A798
Method: Minimal inhibitory concentrations (MICs; mg/l) were determined in cation-adjusted Mueller-Hinton Broth by a microdilution method following the description given in “Methods for Dilution Antimicrobial Susceptibility Tests for Bacteria that Grow Aerobically”, Approved standard, 7th ed., Clinical and Laboratory Standards Institute (CLSI) Document M7-A7, Wayne, Pa., USA, 2006. All Example compounds were tested against several Gram positive and Gram negative bacteria such as S. aureus, E. faecalis, S. pneumoniae, M catarrhalis, A. baumanii, E. coli or P. aeruginosa.

Point of comparison: `COc1ccc2ncc3c(c2n1)[C@@H](CCNCC1CN(c2ccc4c(c2)OCCO4)C(=O)O1)CO3` (mixture of isomers) [Example 20, (RS)-3-(2,3-dihydro-benzo[1,4]dioxin-6-yl)-5-{[2-((R)-8-methoxy-1,2-dihydro-3-oxa-5,9-diaza-cyclopenta[a]naphthalen-1-yl)-ethylamino]-methyl}-oxazolidin-2-one], MIC 1 µg/mL. Against it:
- COc1ccc2ncc3c(c2n1)CC(CNCC[C@@H]1CN(c2ccc4c(c2)NC(=O)CS4)C(=O)O1)O3 (mixture of isomers) [Example 19, 6-((R)-5-{2-[((RS)-8-methoxy-1,2-dihydro-3-oxa-5,9-diaza-cyclopenta[a]naphthalen-2-ylmethyl)-amino]-ethyl}-2-oxo-oxazolidin-3-yl)-4H-benzo[1,4]thiazin-3-one] — lower, ≤ 0.031 µg/mL
- COc1ccc2ncc3c(c2n1)CC(CNCC[C@@H]1CN(c2ccc4c(c2)NC(=O)CO4)C(=O)O1)O3 (mixture of isomers) [Example 18, 6-((R)-5-{2-[((RS)-8-methoxy-1,2-dihydro-3-oxa-5,9-diaza-cyclopenta[a]naphthalen-2-ylmethyl)-amino]-ethyl}-2-oxo-oxazolidin-3-yl)-4H-benzo[1,4]oxazin-3-one] — lower, ≤ 0.031 µg/mL
- COc1ccc2ncc3c(c2n1)C(CCNC[C@@H]1CN(c2ccc4c(c2)NC(=O)CO4)C(=O)O1)CO3 (mixture of isomers) [Example 10, 6-((R)-5-{[2-((RS)-8-methoxy-1,2-dihydro-3-oxa-5,9-diaza-cyclopenta[a]naphthalen-1-yl)-ethylamino]-methyl}-2-oxo-oxazolidin-3-yl)-4H-benzo[1,4]oxazin-3-one] — lower, ≤ 0.031 µg/mL
- COc1ccc2ccc3c(c2n1)C(CCNC[C@@H]1CN(c2ccc4c(c2)NC(=O)CO4)C(=O)O1)CO3 (mixture of isomers) [Example 7, 6-((R)-5-{[2-((RS)-2-methoxy-8,9-dihydro-furo[2,3-h]quinolin-9-yl)-ethylamino]-methyl}-2-oxo-oxazolidin-3-yl)-4H-benzo[1,4]oxazin-3-one] — lower, ≤ 0.031 µg/mL
- COc1ccc2ccc3c(c2n1)C(CNC[C@@H]1CN(c2ccc4c(c2)NC(=O)CS4)C(=O)O1)CO3 (mixture of isomers) [Example 8, 6-((R)-5-{[((RS)-2-methoxy-8,9-dihydro-furo[2,3-h]quinolin-9-ylmethyl)-amino]-methyl}-2-oxo-oxazolidin-3-yl)-4H-benzo[1,4]thiazin-3-one] — lower, ≤ 0.031 µg/mL
- COc1ccc2ncc3c(c2n1)C(CNCC[C@H]1CN(c2ccc4c(c2)NC(=O)CS4)C(=O)O1)CO3 (mixture of isomers) [Example 15, 6-((S)-5-{2-[((RS)-8-methoxy-1,2-dihydro-3-oxa-5,9-diaza-cyclopenta[a]naphthalen-1-ylmethyl)-amino]-ethyl}-2-oxo-oxazolidin-3-yl)-4H-benzo[1,4]thiazin-3-one] — lower, ≤ 0.031 µg/mL
- COc1ccc2ccc3c(c2n1)CC(CNC[C@@H]1CN(c2ccc4c(c2)NC(=O)CS4)C(=O)O1)CO3 (mixture of isomers) [Example 1, 6-((R)-5-{[((RS)-6-methoxy-3,4-dihydro-2H-1-oxa-5-aza-phenanthren-3-ylmethyl)-amino]-methyl}-2-oxo-oxazolidin-3-yl)-4H-benzo[1,4]thiazin-3-one] — lower, ≤ 0.031 µg/mL
- COc1ccc2ncc3c(c2n1)C(CCNC(=O)[C@@H]1CN(c2ccc4c(c2)OCCO4)C(=O)O1)CO3 (mixture of isomers) [Example 16, (S)-3-(2,3-dihydro-benzo[1,4]dioxin-6-yl)-2-oxo-oxazolidine-5-carboxylic acid [2-((RS)-8-methoxy-1,2-dihydro-3-oxa-5,9-diaza-cyclopenta[a]naphthalen-1-yl)-ethyl]-amide] — lower, ≤ 0.031 µg/mL
- COc1ccc2ncc3c(c2n1)C(CNCC[C@@H]1CN(c2ccc4c(c2)NC(=O)CS4)C(=O)O1)CO3 (mixture of isomers) [Example 14, 6-((R)-5-{2-[((RS)-8-methoxy-1,2-dihydro-3-oxa-5,9-diaza-cyclopenta[a]naphthalen-1-ylmethyl)-amino]-ethyl}-2-oxo-oxazolidin-3-yl)-4H-benzo[1,4]thiazin-3-one] — lower, ≤ 0.031 µg/mL
- COc1ccc2ccc3c(c2n1)C(CCNC[C@@H]1CN(c2ccc4c(c2)NC(=O)CS4)C(=O)O1)CO3 (mixture of isomers) [Example 6, 6-((R)-5-{[2-((RS)-2-methoxy-8,9-dihydro-furo[2,3-h]quinolin-9-yl)-ethylamino]-methyl}-2-oxo-oxazolidin-3-yl)-4H-benzo[1,4]thiazin-3-one] — lower, ≤ 0.031 µg/mL
- COc1ccc2ccc3c(c2n1)CC(CNC[C@@H]1CN(c2ccc4c(c2)NC(=O)CO4)C(=O)O1)CO3 (mixture of isomers) [Example 2, 6-((R)-5-{[((RS)-6-methoxy-3,4-dihydro-2H-1-oxa-5-aza-phenanthren-3-ylmethyl)-amino]-methyl}-2-oxo-oxazolidin-3-yl)-4H-benzo[1,4]oxazin-3-one] — lower, ≤ 0.031 µg/mL
- COc1ccc2ncc3c(c2n1)CC(CNC[C@@H]1CN(c2ccc4c(c2)NC(=O)CS4)C(=O)O1)CO3 (mixture of isomers) [Example 4, 6-((R)-5-{[((RS)-6-methoxy-3,4-dihydro-2H-1-oxa-5,9-diaza-phenanthren-3-ylmethyl)-amino]-methyl}-2-oxo-oxazolidin-3-yl)-4H-benzo[1,4]thiazin-3-one] — lower, ≤ 0.031 µg/mL
- COc1ccc2ncc3c(c2n1)CC(CNC[C@@H]1CN(c2ccc4c(c2)NC(=O)CS4)C(=O)O1)CN3 (mixture of isomers) [Example 5, 6-((R)-5-{[((RS)-6-methoxy-1,2,3,4-tetrahydro-1,5,9-triaza-phenanthren-3-ylmethyl)-amino]-methyl}-2-oxo-oxazolidin-3-yl)-4H-benzo[1,4]thiazin-3-one] — lower, ≤ 0.031 µg/mL
- COc1ccc2ncc3c(c2n1)C(CCNC[C@@H]1CN(c2ccc(C)c(F)c2)C(=O)O1)CO3 (mixture of isomers) [Example 11, (R)-3-(3-fluoro-4-methyl-phenyl)-5-{[2-((RS)-8-methoxy-1,2-dihydro-3-oxa-5,9-diaza-cyclopenta[a]naphthalen-1-yl)-ethylamino]-methyl}-oxazolidin-2-one] — 4-fold lower, 0.25 µg/mL
- COc1ccc2ncc3c(c2n1)C(CCNC[C@H]1CN(c2ccc4c(c2)NC(=O)CS4)C(=O)O1)CO3 (mixture of isomers) [Example 12, 6-((S)-5-{[2-((RS)-8-methoxy-1,2-dihydro-3-oxa-5,9-diaza-cyclopenta[a]naphthalen-1-yl)-ethylamino]-methyl}-2-oxo-oxazolidin-3-yl)-4H-benzo[1,4]thiazin-3-one] — lower, ≤ 0.031 µg/mL
- COc1ccc2ncc3c(c2n1)C(CCNC[C@@H]1CN(c2ccc4c(c2)NC(=O)CS4)C(=O)O1)CO3 (mixture of isomers) [Example 9, 6-((R)-5-{[2-((RS)-8-methoxy-1,2-dihydro-3-oxa-5,9-diaza-cyclopenta[a]naphthalen-1-yl)-ethylamino]-methyl}-2-oxo-oxazolidin-3-yl)-4H-benzo[1,4]thiazin-3-one] — lower, ≤ 0.031 µg/mL
- COc1ccc2ncc3c(c2n1)C(CCNCC[C@@H]1CN(c2ccc4c(c2)NC(=O)CS4)C(=O)O1)CO3 (mixture of isomers) [Example 13, 6-((R)-5-{2-[2-((RS)-8-methoxy-1,2-dihydro-3-oxa-5,9-diaza-cyclopenta[a]naphthalen-1-yl)-ethylamino]-ethyl}-2-oxo-oxazolidin-3-yl)-4H-benzo[1,4]thiazin-3-one] — lower, ≤ 0.031 µg/mL
- COc1ccc2ncc3c(c2n1)CC(CNC[C@@H]1CN(c2ccc4c(c2)NC(=O)CS4)C(=O)O1)O3 (mixture of isomers) [Example 17, 6-((R)-5-{[((RS)-8-methoxy-1,2-dihydro-3-oxa-5,9-diaza-cyclopenta[a]naphthalen-2-ylmethyl)-amino]-methyl}-2-oxo-oxazolidin-3-yl)-4H-benzo[1,4]thiazin-3-one] — lower, ≤ 0.031 µg/mL
- COc1ccc2ncc3c(c2n1)CC(CNC[C@@H]1CN(c2ccc4c(c2)NC(=O)CO4)C(=O)O1)CO3 (mixture of isomers) [Example 3, 6-((R)-5-{[((RS)-6-methoxy-3,4-dihydro-2H-1-oxa-5,9-diaza-phenanthren-3-ylmethyl)-amino]-methyl}-2-oxo-oxazolidin-3-yl)-4H-benzo[1,4]oxazin-3-one] — lower, ≤ 0.031 µg/mL
